According to US20220062296A1, “COMBINATIONS OF GABAA ALPHA 5 AGONISTS AND SV2A INHIBITORS AND METHODS OF USING IN THE TREATMENT OF COGNITIVE IMPAIRMENT” (AGENEBIO, INC., priority 2020, published 2022):
“Also recorded” adds a separate entry of the source.

Columns and labels:
[1] = Competitive interconversion slurry experiments between crystalline forms (relative thermodynamic stability); assay type: physicochemical; settings: ambient temperature; Form E also 55° C. and 77° C.
Protocol: Interconversion experiments were performed to identify the most thermodynamically stable anhydrous form of Compound 1 (Table 19). […] The choice of solvent affects the kinetics of polymorph conversion and not the thermodynamic relationship between polymorphic forms.
Various combinations of Forms B, E, F, and Material D were slurried with Form A at ambient and elevated temperatures (for experiments involving Form E). Different solvent systems were used and included a variety of water activities. Saturated solutions were generated and then added to the mixtures composed of approximately equivalent quantities of the forms. The mixtures were slurried for a particular duration of time and the solids harvested and analyzed by XRPD.

[2] = Differential scanning calorimetry / thermogravimetry (DSC, TGA); assay type: physicochemical; settings: 10° C./min
Protocol: DSC was performed using a Mettler-Toledo DSC3+ differential scanning calorimeter. A tau lag adjustment is performed with indium, tin, and zinc. The temperature and enthalpy are adjusted with octane, phenyl salicylate, indium, tin and zinc. The adjustment is then verified with octane, phenyl salicylate, indium, tin, and zinc. The sample was placed into a hermetically sealed aluminum DSC pan, the weight was accurately recorded, and the sample was inserted into the DSC cell. A weighed aluminum pan configured as the sample pan was placed on the reference side of the cell. The pan lid was pierced prior to sample analysis. The samples were analyzed from −25° C. to 250° C. at 10° C./min.
Thermogravimetric analyses were performed using a Mettler-Toledo TGA/DSC3+ analyzer. Temperature calibration was performed using calcium oxalate, indium, tin, and zinc. The sample was placed in an aluminum pan. The pan was hermetically sealed, the lid was pierced, and the pan was then inserted into the TG furnace. A weighed aluminum pan configured as the sample pan was placed on the reference platform. The furnace was heated under nitrogen. Samples were analyzed from 25° C. to 350° C. at 10° C./min.

[3] = Dynamic vapor sorption (DVS); assay type: physicochemical; settings: for form recovered after the DVS experiment (XRPD): post DVS
Protocol: Dynamic vapor sorption data was collected on a Surface Measurement System DVS Intrinsic instrument. The samples were not dried prior to analysis. Sorption and desorption data were collected over a range from 5% to 95% RH in 10% RH increments under a nitrogen purge. The equilibrium criteria used for the analyses were 0.001 dm/dt weight change in 5 minutes with a minimum step time of 30 minutes and maximum equilibration time of 180 minutes with a 3-minute data logging interval. Data were not corrected for the initial moisture content of the sample. The samples were identified as having low, limited or significant hygroscopicity based on the definitions in the below table.

[4] = Storage and stress stability of crystalline forms (XRPD); assay type: physicochemical; settings: for stability under ambient storage: ambient conditions
Protocol: XRPD patterns were collected with a PANalytical X'Pert PRO MPD or a PANalytical Empyrean diffractometer using an incident beam of Cu radiation produced using an Optix long, fine-focus source. An elliptically graded multilayer mirror was used to focus Cu Kα X-rays through the specimen and onto the detector. Prior to the analysis, a silicon specimen (NIST SRM 640e) was analyzed to verify the observed position of the Si 111 peak is consistent with the NIST-certified position. A specimen of the sample was sandwiched between 3-μm-thick films and analyzed in transmission geometry. A beam-stop, short antiscatter extension, and antiscatter knife edge were used to minimize the background generated by air. Sober slits for the incident and diffracted beams were used to minimize broadening from axial divergence. Diffraction patterns were collected using a scanning position-sensitive detector (X'Celerator) located 240 mm from the specimen and Data Collector software v. 5.5.

MAM-treated rats = settings: cited from earlier work
aged-impaired rats = assay: Water maze probe test after chronic brivaracetam (osmotic mini-pumps); assay type: in vivo, rat; settings: 2 mg/kg/day
Protocol: (§1) The radial arm maze experiments used acute administration of seletracetam (0-4 mg/kg), brivaracetam (0-4 mg/kg), or saline vehicle given by intraperitoneal injection (in a volume of 1 ml/kg) 30-40 min prior to test sessions.
Rats were trained and tested in a novel water maze environment to assess the effect of drug treatment. The water maze used here was housed in a different building and was surrounded by curtains with a novel set of patterns relative to the maze used for initial assessment of cognitive status. The training protocol consisted of 6 trials per day for 2 days to locate a submerged escape platform. On each trial, a rat was released in the maze from one of four equally spaced starting positions around the perimeter of the pool. The starting position varied from trial to trial. […] The rat was then removed from the platform and placed in a holding cage for another 40 s before the next trial. Approximately 24 hr after the last training trial, a probe test in the absence of the escape platform was given to assess spatial memory.

[5] = tested on: memory-impaired aged (AI) rats; assay: Radial arm maze task with 2-hr retention interval, acute brivaracetam or seletracetam; assay type: in vivo, rat; settings: doses 0.0625-4 mg/kg i.p.; repeated measures ANOVA
Protocol: as §1
A radial arm maze (RAM) task was used to assess effects of acute drug treatment with seletracetam and brivaracetam. This protocol allowed within-subject assessment across drugs at different doses. The radial maze consisted of eight arms projecting from each side of an octagonal center platform, with a food well located at the distal end of each arm. Plexiglas blocks could be positioned to prevent entry into any arm. Extra-maze cues were provided in the room surrounding the maze and illumination was provided by an overhead light.
Pre-training, as described in detail in Chappell et al. Neuropharmacology 37: 481-487, (1998), consisted of habituation, standard win-shift training, and win-shift training with delays interposed between information and memory test phases. Drug treatments began two days after the completion of pre-training. Three arms were blocked at the beginning of each trial (information phase). The identity and configuration of the blocked arms were varied across trials. Food-deprived rats were allowed to retrieve food reward (Kellogg's Froot Loops™ cereal) from the five unblocked arms. […]

Q: For `COCc1nnc2n1Cc1c(C#Cc3cnc(OC)s3)ncn1-c1ccc(Cl)cc1-2` [Form A], which “outcome of solvent-mediated interconversion with Form A (relative thermodynamic stability)” value (shortened to “outcome … (relative thermodynamic stability)”) [1] is on record?
A: The value was “Form A prevailed for each experiment”.

Q: And the “onset of DSC exotherm due to decomposition” value (from here on “onset of DSC exotherm due”) [2]?
A: The value was “about 207 °C”.

Q: What about the “hygroscopicity (DVS isotherm)” value ([3]; 5% to 95% RH) of the same compound?
A: Its value is “low hygroscopicity; also recorded: limited hygroscopicity”.

Q: What about the “weight change through the sorption/desorption cycle” value ([3]; 5% to 95% RH, no hysteresis) of the same compound?
A: Its value is roughly 0.3%.

Q: What about the “form recovered after the DVS experiment (XRPD)” value [3] of the same compound?
A: Its value is “same as the starting material”.

Q: Which “outcome … (relative thermodynamic stability)” value [1] does the source give for `COCc1nnc2n1Cc1c(C#Cc3cnc(OC)s3)ncn1-c1ccc(Cl)cc1-2` [Form B] here?
A: The value was “convert to Form A”.

Q: What about the “onset of DSC exotherm due” value [2] of the same compound?
A: Its value is “about 190 °C”.

Q: What does the source list for `COCc1nnc2n1Cc1c(C#Cc3cnc(OC)s3)ncn1-c1ccc(Cl)cc1-2` [Form C]?
A: behaviour upon overnight exposure to 80° C. ([4]; 80° C., overnight): desolvate to Form B; stability under ambient storage [4]: remain unchanged for 9 weeks; onset of DSC exotherm due to decomposition [2]: 190 °C

Q: With `COCc1nnc2n1Cc1c(C#Cc3cnc(OC)s3)ncn1-c1ccc(Cl)cc1-2` [Form E] as the compound, how does the “outcome … (relative thermodynamic stability)” value [1] read?
A: The value was “metastable relative to Form A”.

Q: And the “onset of DSC exotherm due” value [2]?
A: The value was roughly 201 °C.

Q: Which “behaviour upon exposure to 100° C.” value ([4]; 100° C.) does the source give for `COCc1nnc2n1Cc1c(C#Cc3cnc(OC)s3)ncn1-c1ccc(Cl)cc1-2` [Form F] here?
A: The value was “does dehydrate”.

Q: And the “stability under vacuum at ambient temperature” value ([4]; vacuum, ambient temperature)?
A: The value was “remain unchanged for 5 days”.

Q: What about the “onset of DSC exotherm due” value [2] of the same compound?
A: The value was “above 120 °C”.

Q: And the “hygroscopicity (DVS isotherm)” value ([3]; 5% to 95% RH)?
A: The value was “limited hygroscopicity”.

Q: And the “weight gain on sorption” value ([3]; from 5-95% RH)?
A: Its value is 1.8%.

Q: And the “form recovered after the DVS experiment (XRPD)” value [3]?
A: The value was “still Form F”.

Q: And the “weight loss upon desorption” value ([3]; significant hysteresis)?
A: The value was 1.5%.

Q: What does the source list for `COCc1nnc2n1Cc1c(C#Cc3cnc(OC)s3)ncn1-c1ccc(Cl)cc1-2` [Material D]?
A: stability under ambient storage [4]: Material D still remained; outcome of solvent-mediated interconversion with Form A (relative thermodynamic stability) [1]: convert to Form A; onset of DSC exotherm due to decomposition [2]: ~174 °C

Q: With `C#Cc1ccc2c(c1)C(c1ccccc1F)=N[C@H](C)c1c(C(=O)OCC)ncn1-2` [SH-053-2′F—R—CH3] as the compound, how does the “number of spontaneously active DA neurons in the ventral tegmental area (VTA)” value (MAM-treated rats; MAM rats, systemic or infused into the ventral HPC) read?
A: The value was “reduces the number of spontaneously active DA neurons”.

Q: And the “increased locomotor response to amphetamine” value (MAM-treated rats; MAM-treated rats)?
A: The value was “is reduced”.

Q: And the “cortical-evoked responses of HPC neurons” value (MAM-treated rats; saline-treated and MAM-treated animals)?
A: The value was “diminished cortical-evoked responses”.

Q: Which “spatial bias for the target quadrant compared to the other control quadrants” value (aged-impaired rats; osmotic mini-pumps, started two weeks before, p=0.010) does the source give for `CCC[C@@H]1CC(=O)N([C@@H](CC)C(N)=O)C1` [brivaracetam, (2S)-2-[(4R)-2-oxo-4-propylpyrrolidin-1-yl]butanamide] here?
A: The value was “significant spatial bias for the target quadrant”.

Q: What about the “time in the target quadrant vs vehicle-treated rats” value (aged-impaired rats; p=0.018) of the same compound?
A: The value was “significantly more time in the target quadrant”.

Q: What about the “time in the target annulus vs vehicle-treated rats” value (aged-impaired rats; p=0.036) of the same compound?
A: The value was “significantly more time in the target annulus”.

Q: And the “number of errors in the retention phase after the 2-hr delay” value [5]?
A: The value was “significant effect as a function of dose”.

Q: With `CC[C@@H](C(N)=O)N1C[C@H](C=C(F)F)CC1=O` [seletracetam, (2S)-2-[(4S)-4-(2,2-difluoroethenyl)-2-oxopyrrolidin-1-yl]butanamide] as the compound, how does the “number of errors in the retention phase after the 2-hr delay” value [5] read?
A: The value was “significant effect as a function of dose”.
